# Test results reported in US11401234B2, “Deuterated compounds and uses thereof” (priority 2012, dated 2022).
# Where “and” joins values, the source holds several entries; their conditions need not be identical. Identical values can stand only once.
# Experiments:
# 22Rv1 prostate tumours = assay: Tumour oxygenation (pO2) by Oxylite oxygen electrode probe in xenografts; type: in vivo, SCID mice
# Experimental: • 22Rv1 cells grow as a solid tumour on the backs of SCID mice. • Tumour oxygenation was measured over 28 days in vehicle and bicalutamide (2 mg/kg/day) treated mice (see Table 3 above). • Bicalutamide caused a drop in tumour oxygenation (as shown in FIG. 10); from ˜15.3 mmHg (2% oxygen) to 2.0 mmHg (0.3% oxygen) at day 7 and to 0.5 mmHg (0.1% oxygen) at day 14. […] However, during the subsequent week (probably related to tumour size) the median oxygen levels […] to about 3 mmHg (0.4% oxygen) and do indicate recovery.
# 22Rv1 xenograft tumours = assay: 22Rv1 xenograft tumour growth (calliper tumour volumes); type: in vivo, SCID mice; settings: 2 mg/kg/day oral gavage
# Text: (ii) Effect of Bicalutamide on Blood Vessels in 22Rv1 Tumour Xenografts • Dorsal skin folds were secured using window chambers onto the backs of male SCID mice (>8 weeks). […] Tumour volume was normalised to day 6 (ie pre-prodrug addition).
# LNCaP xenograft tumours = assay: LNCaP xenograft tumour growth (calliper tumour volumes); type: in vivo, SCID mice
# [1] = system: Human T cell leukaemia cells (Jurkat); assay: Inhibition of cell proliferation in air or 1% oxygen (Coulter Counter relative cell number); type: cell-based; settings: 4 days, range of concentrations
structure (smiles),measurement,setting,value
CC(O)(CS(=O)(=O)c1ccc(F)cc1)C(=O)Nc1ccc(C#N)c(C(F)(F)F)c1 (stereo not drawn) [Bicalutamide],Mean pO2 ± SD,"22Rv1 prostate tumours; day 0 (before commencement of treatment), 2 mg/kg/day oral gavage group, 2 mg/kg/day",15.277 ± 11.254 mmHg
same,tumour oxygenation,"22Rv1 prostate tumours; day 0, 2 mg/kg/day group",2 % oxygen
same,tumour oxygenation,"22Rv1 prostate tumours; day 7, 2 mg/kg/day",0.3 % oxygen
same,Mean pO2 ± SD,"22Rv1 prostate tumours; day 7 of treatment, 2 mg/kg/day oral gavage, 2 mg/kg/day",2.0 mmHg and 1.996 ± 1.989 mmHg
same,tumour oxygenation,"22Rv1 prostate tumours; day 14, 2 mg/kg/day",0.1 % oxygen
same,Mean pO2 ± SD,"22Rv1 prostate tumours; day 14 of treatment, 2 mg/kg/day oral gavage, 2 mg/kg/day",0.5 mmHg and 0.486 ± 0.107 mmHg
same,Mean pO2 ± SD,"22Rv1 prostate tumours; day 21 of treatment, 2 mg/kg/day oral gavage",1.291 ± 0.291 mmHg
same,Mean pO2 ± SD,"22Rv1 prostate tumours; day 28 of treatment, 2 mg/kg/day oral gavage",11.905 ± 0.861 mmHg
same,time to reach four times the volume at the start of treatment,22Rv1 xenograft tumours,18.5 ± 0.8 days
same,Growth Delay,"22Rv1 xenograft tumours; versus vehicle, time to four times start volume",4.5 days
same,Time to 2x start volume,"LNCaP xenograft tumours; bicalutamide 2 mg/kg/day oral 28 days, OCT1002 50 mg/kg i.p. single dose day 7",16.2 ± 1.94 days
same,Growth Delay,"LNCaP xenograft tumours; versus vehicle, time to reach twice the treatment size",5.1 days and 5 ± 3.82 days
"[2H]C([2H])([2H])N(CCNc1ccc(NCCN(C([2H])([2H])[2H])C([2H])([2H])[2H])c2c1C(=O)c1c(O)ccc(O)c1C2=O)C([2H])([2H])[2H] [OCT1001, 1,4-bis-{[2-(deuterated-d6-dimethylamino)ethyl]amino)-5,8-dihydroxy-anthracene-9,10-dione]","loss of intracellular fluorescence attributable to metabolite, compared with AQ4","A549 cells; after 24 h post exposure recovery in drug free medium, normal oxygenation",reduced loss
same,"cellular accumulation of intracellular fluorescence attributable to metabolite, compared with AQ4",A549 cells; after 4 day prodrug exposure under 1% oxygen,reduced cellular accumulation
COc1cc([C@@H]2c3cc4c(cc3[C@@H](O[C@@H]3O[C@@H]5CO[C@@H](C)O[C@H]5[C@H](O)[C@H]3O)[C@H]3COC(=O)[C@H]23)OCO4)cc(OC)c1O [VP-16],"inhibition of cell proliferation (cytostatic activity, relative cell number)",[1],hypoxia does not modify the cytostatic action
